Columns and labels:
S. aureus Newman [1] = test: Bliss interaction score (quartile over a dose matrix) (fitness difference); higher = more antagonism (negative = synergy)
Outline: (§1)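 Combination data were used to infer fitness under each single drug. Fitness is the OD595 at entry into stationary phase divided by the robust mean of the plate's no-drug wells, with a cap of 1. The Bliss score is the observed minus the expected product fitness, summarised by quartiles over technical, biological and donor/recipient replicates.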

S. aureus DSM 20231 [2] = test: as above
Outline: as §1

B. subtilis 168 [3] = test: as above
Outline: as §1

S. pneumoniae D39V [4] = test: as above
Outline: as §1

S. aureus Newman [5] = test: fitness (endpoint OD595 vs no drug) (fraction); higher = more growth
Outline: (§2)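 Cultures at OD595 0.01 were dispensed into 384-well plates in TSB, LB Lennox or CY and incubated at 37 °C. Every 30 min for 14 h, OD595 was read and corrected by the first reading. Fitness is the optical density at entry into stationary phase relative to the robust mean of no-drug control wells, capped at 1.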

S. aureus DSM 20231 [6] = test: as above
Outline: as §2

B. subtilis 168 [7] = test: as above
Outline: as §2

S. pneumoniae D39V [8] = test: as above
Outline: as §2
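Throughout, for Bliss interaction score (quartile over a dose matrix): first quartile when negative (synergy) and third quartile when positive (antagonism).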

CCCCCCCCCC(=O)N[C@@H](Cc1c[nH]c2ccccc12)C(=O)N[C@H](CC(N)=O)C(=O)N[C@@H](CC(=O)O)C(=O)N[C@@H]1C(=O)NCC(=O)N[C@@H](CCCN)C(=O)N[C@@H](CC(=O)O)C(=O)N[C@H](C)C(=O)N[C@@H](CC(=O)O)C(=O)NCC(=O)N[C@H](CO)C(=O)N[C@@H]([C@H](C)CC(=O)O)C(=O)N[C@@H](CC(=O)c2ccccc2N)C(=O)O[C@@H]1C [Daptomycin] + COc1cccc2c1C(=O)c1c(O)c3c(c(O)c1C2=O)C[C@@](O)(C(=O)CO)C[C@@H]3O[C@H]1C[C@H](N)[C@H](O)[C@H](C)O1 [Doxorubicin]
Conditions | Bliss interaction score
B. subtilis 168 [3] | 0.0744
S. aureus DSM 20231 [2] | 0.0493
S. aureus Newman [1] | -0.0594
S. pneumoniae D39V [4] | 0.0772

Conditions | fitness
B. subtilis 168 [7], first compound 0.125 µg/mL, partner 0.625 µg/mL | 0.93
B. subtilis 168 [7], first compound 0.125 µg/mL, partner 1.25 µg/mL | 0.905
B. subtilis 168 [7], first compound 0.125 µg/mL, partner 2.5 µg/mL | 0.628
B. subtilis 168 [7], first compound 0.25 µg/mL, partner 0.625 µg/mL | 0.93
B. subtilis 168 [7], first compound 0.25 µg/mL, partner 1.25 µg/mL | 0.911
B. subtilis 168 [7], first compound 0.5 µg/mL, partner 0.625 µg/mL | 0.84
S. aureus DSM 20231 [6], first compound 0.5 µg/mL, partner 0.625 µg/mL | 0.91
S. aureus DSM 20231 [6], first compound 0.5 µg/mL, partner 1.25 µg/mL | 0.935
S. aureus DSM 20231 [6], first compound 0.5 µg/mL, partner 2.5 µg/mL | 0.829
S. aureus DSM 20231 [6], first compound 1 µg/mL, partner 0.625 µg/mL | 0.887
S. aureus DSM 20231 [6], first compound 1 µg/mL, partner 1.25 µg/mL | 0.961
S. aureus DSM 20231 [6], first compound 1 µg/mL, partner 2.5 µg/mL | 0.852
S. aureus DSM 20231 [6], first compound 2 µg/mL, partner 0.625 µg/mL | 0.926
S. aureus DSM 20231 [6], first compound 2 µg/mL, partner 1.25 µg/mL | 0.914
S. aureus DSM 20231 [6], first compound 2 µg/mL, partner 2.5 µg/mL | 0.841
S. aureus Newman [5], first compound 0.125 µg/mL, partner 0.625 µg/mL | 0.867
S. aureus Newman [5], first compound 0.125 µg/mL, partner 1.25 µg/mL | 0.865
S. aureus Newman [5], first compound 0.125 µg/mL, partner 2.5 µg/mL | 0.739
S. aureus Newman [5], first compound 0.25 µg/mL, partner 0.625 µg/mL | 0.869
S. aureus Newman [5], first compound 0.25 µg/mL, partner 1.25 µg/mL | 0.851
S. aureus Newman [5], first compound 0.25 µg/mL, partner 2.5 µg/mL | 0.748
S. aureus Newman [5], first compound 0.5 µg/mL, partner 0.625 µg/mL | 0.829
S. aureus Newman [5], first compound 0.5 µg/mL, partner 1.25 µg/mL | 0.834
S. aureus Newman [5], first compound 0.5 µg/mL, partner 2.5 µg/mL | 0.755
S. pneumoniae D39V [8], first compound 1 µg/mL, partner 0.25 µg/mL | 0.86
S. pneumoniae D39V [8], first compound 1 µg/mL, partner 0.5 µg/mL | 0.876
S. pneumoniae D39V [8], first compound 1 µg/mL, partner 1 µg/mL | 0.669
S. pneumoniae D39V [8], first compound 2 µg/mL, partner 0.25 µg/mL | 0.936
S. pneumoniae D39V [8], first compound 2 µg/mL, partner 0.5 µg/mL | 0.875
S. pneumoniae D39V [8], first compound 2 µg/mL, partner 1 µg/mL | 0.721
S. pneumoniae D39V [8], first compound 4 µg/mL, partner 1 µg/mL | 0.686

B. subtilis 168 [7], first compound 1 µg/mL, one replicate
Conditions | fitness
partner 0.625 µg/mL | 0.783
partner 1.25 µg/mL | 0.645
partner 2.5 µg/mL | 0.197

CCCCCCCCCC(=O)N[C@@H](Cc1c[nH]c2ccccc12)C(=O)N[C@H](CC(N)=O)C(=O)N[C@@H](CC(=O)O)C(=O)N[C@@H]1C(=O)NCC(=O)N[C@@H](CCCN)C(=O)N[C@@H](CC(=O)O)C(=O)N[C@H](C)C(=O)N[C@@H](CC(=O)O)C(=O)NCC(=O)N[C@H](CO)C(=O)N[C@@H]([C@H](C)CC(=O)O)C(=O)N[C@@H](CC(=O)c2ccccc2N)C(=O)O[C@@H]1C [Daptomycin] + C[C@@H]1O[C@@H]1P(=O)(O)O [Fosfomycin]
Conditions | Bliss interaction score
B. subtilis 168 [3] | 0.063
S. aureus DSM 20231 [2] | -0.0509
S. aureus Newman [1] | 0.0452
S. pneumoniae D39V [4] | 0.0735

fitness
Conditions | first compound 0.125 µg/mL | first compound 0.25 µg/mL | first compound 0.5 µg/mL | first compound 1 µg/mL | first compound 2 µg/mL | first compound 4 µg/mL
B. subtilis 168 [7], partner 1.562 µg/mL | 0.686 | 0.728 | 0.771 | – | – | –
B. subtilis 168 [7], partner 3.124 µg/mL | 0.642 | 0.645 | 0.625 | – | – | –
B. subtilis 168 [7], partner 6.248 µg/mL | 0.492 | 0.468 | 0.511 | – | – | –
S. aureus DSM 20231 [6], partner 0.781 µg/mL | 0.742 | 0.659 | 0.818 | 0.879 | 0.778 | –
S. aureus DSM 20231 [6], partner 1.562 µg/mL | 0.589 | 0.586 | 0.621 | 0.609 | 0.601 | –
S. aureus DSM 20231 [6], partner 3.124 µg/mL | 0.498 | 0.496 | 0.505 | 0.495 | 0.508 | –
S. aureus Newman [5], partner 0.781 µg/mL | 0.657 | 0.674 | 0.703 | – | – | –
S. aureus Newman [5], partner 1.562 µg/mL | 0.536 | 0.534 | 0.534 | – | – | –
S. aureus Newman [5], partner 3.124 µg/mL | 0.233 | 0.172 | 0.16 | – | – | –
S. pneumoniae D39V [8], partner 1.25 µg/mL | – | – | – | 0.93 | 0.919 | –
S. pneumoniae D39V [8], partner 2.5 µg/mL | – | – | – | 0.844 | 0.845 | 0.767
S. pneumoniae D39V [8], partner 5 µg/mL | – | – | – | 0.624 | 0.64 | 0.597

B. subtilis 168 [7], first compound 1 µg/mL, one replicate
Conditions | fitness
partner 1.562 µg/mL | 0.7
partner 3.124 µg/mL | 0.501
partner 6.248 µg/mL | 0.305

CCCCCCCCCC(=O)N[C@@H](Cc1c[nH]c2ccccc12)C(=O)N[C@H](CC(N)=O)C(=O)N[C@@H](CC(=O)O)C(=O)N[C@@H]1C(=O)NCC(=O)N[C@@H](CCCN)C(=O)N[C@@H](CC(=O)O)C(=O)N[C@H](C)C(=O)N[C@@H](CC(=O)O)C(=O)NCC(=O)N[C@H](CO)C(=O)N[C@@H]([C@H](C)CC(=O)O)C(=O)N[C@@H](CC(=O)c2ccccc2N)C(=O)O[C@@H]1C [Daptomycin] + C[n+]1ccc(-c2cc[n+](C)cc2)cc1 [Paraquat]
Conditions | Bliss interaction score
B. subtilis 168 [3] | 0.0589
S. aureus DSM 20231 [2] | -0.0451
S. aureus Newman [1] | 0.0526
S. pneumoniae D39V [4] | 0.0711

fitness
Conditions | first compound 0.125 µg/mL | first compound 0.25 µg/mL | first compound 0.5 µg/mL | first compound 1 µg/mL | first compound 2 µg/mL | first compound 4 µg/mL
B. subtilis 168 [7], partner 1.25 µg/mL | 0.901 | 0.93 | 0.85 | – | – | –
B. subtilis 168 [7], partner 2.5 µg/mL | 0.9 | 0.901 | 0.902 | – | – | –
B. subtilis 168 [7], partner 5 µg/mL | 0.894 | 0.857 | 0.81 | – | – | –
S. aureus DSM 20231 [6], partner 1.25 µg/mL | 0.906 | 0.9 | 0.942 | 0.932 | 0.883 | –
S. aureus DSM 20231 [6], partner 2.5 µg/mL | 0.898 | 0.923 | 0.991 | 0.968 | 0.995 | –
S. aureus DSM 20231 [6], partner 5 µg/mL | 0.93 | 0.927 | 0.924 | 1 | 0.907 | –
S. aureus Newman [5], partner 1.25 µg/mL | ≥ 1 | ≥ 1 | 0.995 | – | – | –
S. aureus Newman [5], partner 2.5 µg/mL | ≥ 1 | ≥ 1 | 0.977 | – | – | –
S. aureus Newman [5], partner 5 µg/mL | 0.974 | 0.945 | 0.9 | – | – | –
S. pneumoniae D39V [8], partner 1.5 µg/mL | – | – | – | 0.996 | 0.987 | 0.936
S. pneumoniae D39V [8], partner 3 µg/mL | – | – | – | 0.973 | 0.955 | 0.937
S. pneumoniae D39V [8], partner 6 µg/mL | – | – | – | 0.974 | 0.922 | 0.872

B. subtilis 168 [7], first compound 1 µg/mL, one replicate
Conditions | fitness
partner 1.25 µg/mL | 0.743
partner 2.5 µg/mL | 0.722
partner 5 µg/mL | 0.653

— the supplement of paper PMC10627819
